# From patent publication US20260355079A1, “Oral Care Compositions Comprising Hops Beta Acids And Fluoride Ions” (priority 2019, published 2026)
# Test system: 3-day biofilm (plaque biofilm)
# Test: in vitro plaque glycolysis model (iPGRM): acid production and acid (glycolysis) inhibition
# Format: cell-based, plaque microorganisms from pooled human saliva
# Details: TABLE 2; 2 min treatment, slurry in water (1:5)
# Protocol: Acid Production and Acid Inhibition [%]
# Acid production and acid inhibition were determined with the in vitro plaque glycolysis model (iPGRM). The purpose of this technique is to provide a simple and quick method for determining if compounds have an influence on the metabolic pathways that plaque microorganisms utilize to produce toxins that adversely affect gingival health.
# The in vitro plaque glycolysis model (iPGRM) is a technique in which plaque is grown from human saliva and treated with various agents to determine anti-glycolytic activity of treatments. When bacteria convert sugar into energy with the help of enzymes, acids are formed. These acids demineralize and damage the dental enamel. The purpose of this technique is to provide a simple and quick method for determining if treatment compounds have an inhibitory effect on the metabolic pathways that plaque microorganisms utilize for the production of acids or toxins and/or inhibit their growth. […]
# […] The pH of the media solutions was then measured to determine the amount of glycolysis inhibition relative to a negative control.
# On Day 1, new glass rods (5 mm×90 mm) were polished approximately 25 mm from the un-tapered end on a lathe with silicon carbide paper of 240, 320, 400, and 600 grit used sequentially. […] After polishing, rods were stored until ready to run test. […]
structure (smiles),measurement,value
[H]/N=C(\N/C(=N/[H])NCCCCCCNC(=N)NC(=N)Nc1ccc(Cl)cc1)Nc1ccc(Cl)cc1 [Chlorhexidine],"Acid Production (ΔpH), Mean",0.30
